What was measured:
BCWM.1 cells [1] = test: Thymidine uptake cell proliferation assay; assay type: cell-based, human; settings: 0.01-40 nM, 48 hours
WM-WSU, RL, MWCL.1 cells = test: MTT cytotoxicity on IgM low-grade lymphoma cells; assay type: cell-based, human; settings: 0.01-40 nM, 48 hours
BCWM.1 cells [2] = test: [3H]-TdR uptake of BCWM.1 cells adherent to BMSCs; assay type: cell-based, human; settings: 0.1-10 nM, 48 hours
Procedure: (§1) The bone marrow (BM) microenvironment confers growth and induces drug resistance in malignant cells (Mitsiades C. S. et al., Eur. J. Cancer., 42(11):1564-73 (2006)). It was therefore sought to determine the anti-tumor activity of everolimus in the presence of the BM microenvironment. It was first investigated whether everolimus inhibits WM cell growth in the context of the BM milieu. BCWM.1 cells were exposed to everolimus (0.1-10 nM) in the presence or absence of BMSCs for 48 hours. The viability of BMSCs assessed by MTT was not affected by everolimus treatment (data not shown). […] Next, the efficacy of everolimus in affecting migration and adhesion of WM cells was evaluated. […] To study the effect of everolimus on the migration of WM cells, BCWM.1 cells were incubated with everolimus (0.01-1 nM) for 4 hours. […] Cells were then subjected to migration as previously reported (Roccaro A. M. et al., Blood, 113(26):6669-80 (2009)).

BCWM.1 cells [3] = settings: everolimus 0.5 nM alone, 48 hours
BCWM.1 cells [4] = test: Transwell migration assay towards SDF-1; assay type: cell-based, human; settings: 0.01-1 nM, 4 hours, 30 nM SDF-1
Procedure: Transwell migration assay (Costar; Corning, Acton, Mass.) was performed using BCWM.1 cells in the presence or absence of 30 nM SDF-1, as described (Azab A. K., et al., Blood, 114(3):619-29 (2009)).
as §1

BCWM.1 cells [5] = test: Cell cycle analysis, PI staining and flow cytometry; assay type: cell-based, human; settings: for cells in S phase: 12 hours (control 36.29%); for G1 phase BCWM.1 cells: 12 hours (control 52.52%)
[6] = tested on: WM and IgM low grade lymphoma cell lines (BCWM.1, MWCL.1 and RL); test: Adhesion to primary WM bone marrow stromal cells; assay type: cell-based, human; settings: 0.01-1 nM
Procedure: as §1

HUVECs = test: Morphogenesis assay on Matrigel (capillary tubule formation); assay type: cell-based, human
Procedure: Unpolymerized Matrigel (17 mg/mL; Becton Dickinson, Mountain View, Calif.) was placed (50 μL/well) in a 96-well microtiter plate (0.32 cm2/well) and polymerized for 1 hour at 37° C. HUVECs and MMECs (5×10^3 per well) in 200 μL of DMEM/10% FCS (positive control), serum-free medium (negative control), as well as in the presence or absence of everolimus (0-0.01-0.1-1-10 nM) were layered onto the Matrigel surface. After 6 hours of incubation in a 5% CO2 humidified atmosphere at 37° C., cell growth and tridimensional organization were observed using a reverted phase-contrast light microscope, as described (Roccaro A. M. et al., Cancer Res., 66(1):184-91 (2006)).

BCWM.1 cells [7] = test: [3H]-thymidine uptake of BCWM.1 cells in presence of endothelial cells (HUVECs); assay type: cell-based, human; settings: 0.01-10 nM, 48 hours
BCWM.1 cells [8] = test: Immunoblotting of cyclin D1, cyclin D2, p27Kip1, p21Cip1; assay type: cell-based, human; settings: 0.1-10 nM, 12 hours
Procedure: (§2) WM and IgM secreting cell lines were harvested and lysed using lysis buffer (Cell Signaling Technology, Beverly, Mass.) reconstituted with 5 mM NaF, 2 mM Na3VO4, 1 mM PMSF (polymethilsulfonyl fluoride), 5 μg/mL leupeptine, and 5 μg/mL aprotinin. Whole-cell lysates (50 μg/lane) were subjected to sodium dodecyl sulfate-polyacrylamide gel eletrophoresis (SDS-PAGE) and transferred to polyvinyldene fluoride (PVDF) membrane (Bio-Rad Laboratories, Hercules, Calif.). The antibodies used for immunoblotting included: anti-caspase3-, -caspase-9, -PARP, phospho (p)-mTOR, p-p70S6K, p-4EBP1, p-FAK-cyclinD1, -cyclinD2-p27^Kip1, -p21^Cip1, p-Akt, -Akt, pERK, -ERK, p-GSK3, -p-STAT3, -p-p65, -p-p50, -p-IkB, -nucleolin and -tubulin antibodies (Cell Signaling, Danvers, Mass.).

mTOR = test: Western blot of p-mTOR, p-p70S6K, p-4EBP1 in BCWM.1 and MWCL.1 cells; assay type: cell-based, human; settings: 0.1-10 nM, 6 hours
Procedure: as §2

BCWM.1 cells [9] = test: Western blot of p-4EBP1 and p-70S6K in BCWM.1 cells cultured with HUVECs; settings: 0.01-10 nM, 6 hours
Procedure: as §2
It was next sought to determine the effect of everolimus on modulating vessel formation. […] The impact of everolimus to target WM cells in presence of endothelial cells was next evaluated at signaling level.

[10] = tested on: WM and IgM low-grade lymphoma cells (BCWM.1; MWCL.1; RL); test: DNA fragmentation (Cell Death Detection ELISA), apoptosis; assay type: cell-based, human; settings: 0.1-10 nM, 24 hours
Text: Cell Death Detection ELISA (Roche Applied Science, Indianapolis, Ind.) was used to quantify DNA fragmentation, as per the manufacturer's instructions, and as previously described (Sacco A. et al., Clin Cancer Res., 17(7):1753-64 (2011)).

[11] = tested on: primary peripheral blood-derived CD19+ cells; test: MTT cytotoxicity on healthy donor cells; assay type: cell-based, human; settings: healthy individuals, 60-1000 nM, 48 hours
miRNA-155 = test: qRT-PCR of miRNA-155 level in WM cell lines; assay type: cell-based, human; settings: BCWM.1; MWCL.1; 0.1-1-10 nM, 12 hours
Procedure: qRT-PCR for miRNA-155 (TaqMan microRNA Assays, Applied Biosystems, Foster City, Calif.) was performed on an Applied Biosystems AB7500 Real Time PCR system.

BMSCs = test: MTT viability of BMSCs; assay type: cell-based, human; settings: 0.1-10 nM, 48 hours
Procedure: as §1

[12] = tested on: primary WM bone-marrow derived CD19+ cells; test: MTT cytotoxicity on primary WM cells; assay type: cell-based, human; settings: 0.1-10 nM, 48 hours, 4 patients with relapsed/refractory WM
Procedure: Next, it was sought to determine the underlying mechanisms that led to everolimus-dependent anti-tumor effect in WM. The activity of everolimus in targeting WM cells was tested in primary WM CD19^+ cells, and WM and IgM secreting lymphoma cell lines (BCWM1; MWCL.1; RL), as well as in normal PBMC-derived CD19^+ cells. […] Everolimus-induced toxicity in WM and IgM secreting lymphoma cell lines was subsequently validated.

BCWM.1 cells [13] = test: MTT cytotoxicity assay; assay type: cell-based, human
[14] = tested on: mammalian target of rapamycin (mTOR); test: Immunohistochemistry of p-4EBP1 and p-S6R in bone marrow biopsies pre- and post-everolimus; assay type: in vivo, human
Text: Bone marrow biopsies from WM patients at pretreatment and at the end of therapy were fixed in Zenker's formalin, embedded in paraffin blocks, and sectioned. Sections were stained for phospho(p)-4EBP1 and p-S6R (Cell Signaling Technology, Inc.). Signal quantification for each target was obtained from four different areas, on matched pre- and post-everolimus treatment of 4 patients presenting with partial response; and on matched pre- and post-everolimus treatment of 3 patients presenting with stable disease. Numbers of positive cells were obtained on 4 different fields of the bone marrow biopsy, and average and standard deviation provided, as previously described (Fingar D. C. et al., Mol. Cell. Biol., 24(1):200-16 (2004).
In contrast, everolimus-dependent modulation of phosphorylated ribosomal protein S6 (phospho(p)-S6R) and p-4EBP1 was not observed in those patients with stable disease (FIG. 9C).

BCWM.1 and MWCL.1 cells [15] = test: MTT cytotoxicity in miRNA-155 knockdown probe-transfected WM cell lines; assay type: cell-based, human; settings: 0.1-1-10 nM, 48 hours, knockdown probe vs scramble probe
[16] = patients with relapsed or refractory WM, oral; cited from earlier work
NF-κB p65 = NF-κB p65 DNA-binding activity (Active Motif TransAM) in nuclear extracts; assay type: cell-based, human; settings: BCWM.1 and MWCL.1; everolimus 1 nM or bortezomib 5 nM, 4 hours; TNF-α 10 ng/mL
Text: NF-κB activity was investigated using the Active Motif TransAM kits, a DNA-binding enzyme-linked immunosorbent assay (ELISA)-based assay (Active Motif North America, Carlsbad, Calif.).

BCWM.1 and MWCL.1 cells [17] = test: Caspase-9, caspase-3 and PARP cleavage (Western blot, Caspase 3/7 Glo Assay); assay type: cell-based, human; settings: 0.1-10 nM, 24 hours
Procedure: WM cell lines have been exposed to everolimus (0.1-10 nM) for 24 hours and caspase activation has been assessed using Caspase 3/7 Glo Assay (Promega, Madison, Wis.), according to manufacturer's procedure.

BCWM.1 cells [18] = test: Antibody-dependent cell-mediated cytotoxicity assay (ADCC); assay type: cell-based, human; settings: E/T ratio of 10:1; rituximab 10 μg/mL, everolimus 1 nM, bortezomib 5 nM
Procedure: Briefly, interleukin-2 (IL-2; R&D, Minneapolis, Minn.)-activated PBMCs were used as effector cells and calcein-AM-labeled BCWM.1 cell line, as targets. PBMCs were separated from leukopheresis products from healthy donors over Ficoll-Hypaque solution after informed consent. Effector cells were used immediately at 37° C. in RPMI complete media after being activated with IL-2 (100 UI/mL for 36 hours). Target cells were labeled with calcein-AM for 1 hour at 37° C., washed thrice, and plated in triplicate in 96-well plates (5000 cells per well). ADCC was performed in the presence of rituximab (10 μg/mL) or human control IgG1 (2 ng/mL) at various effector-target (E/T) ratios (10:1, 20:1, and 40:1). The 96-well plates were centrifuged at 30 g for 2 minutes at room temperature, followed by a 4-hour incubation at 37° C. Culture supernatants were transferred to a Black ViewPlate-96 plate and read on Wallac VICTOR2 using 492/520 nm filter set (Perkin Elmer). Combinatory studies using everolimus (1 nM), Bortezomib (5 nM) and Rituximab (10 μg/mL) were also performed. This assay was valid only if (mean maximum release−medium control release)/(mean spontaneous release−medium control release) was more than 7. Spontaneous release is the CPM in the supernatant from wells containing target cells alone. Maximum release is the supernatants of wells containing target cells and Triton X-100. […]

CO[C@H]1C[C@@H]2CC[C@@H](C)[C@@](O)(O2)C(=O)C(=O)N2CCCC[C@H]2C(=O)O[C@H]([C@H](C)C[C@@H]2CC[C@@H](OCCO)[C@H](OC)C2)CC(=O)[C@H](C)/C=C(\C)[C@@H](O)[C@@H](OC)C(=O)[C@H](C)C[C@H](C)/C=C/C=C/C=C/1C [everolimus, 40-O-(2-hydroxyethyl) derivative of sirolimus (rapamycin)]
cell proliferation (BCWM.1 cells [1]): inhibiting cell proliferation | cytotoxicity (WM-WSU, RL, MWCL.1 cells): induction of cytotoxicity was validated | BMSC-triggered proliferation of BCWM.1 cells (BCWM.1 cells [2]): inhibited by everolimus in a dose-dependent manner | cytotoxicity, % of BCWM.1 cells (BCWM.1 cells [3]): 24% | migration towards SDF-1 (BCWM.1 cells [4]): inhibited WM cell migration towards SDF-1, in a dose-dependent manner | migration towards SDF-1 (BCWM.1 cells [4]; listed as Everolimus): inhibited SDF-1-induced migration | cells in S phase (BCWM.1 cells [5]; 0.1 nM everolimus): 29.14% | G1 phase BCWM.1 cells (BCWM.1 cells [5]; 0.1 nM everolimus): 61.25% | cells in S phase (BCWM.1 cells [5]; 1 nM everolimus): 21.71% | G1 phase BCWM.1 cells (BCWM.1 cells [5]; 1 nM everolimus): 70.98% | cell cycle progression (BCWM.1 cells [5]; 0.1-10 nM, 12 hours): cell cycle arrest | cell adhesion to primary WM bone marrow stromal cells [6]: inhibited WM cell adhesion in a dose-dependent manner | capillary formation (HUVECs; 1 nM everolimus): almost complete inhibition of capillary formation | endothelial cell morphogenesis on Matrigel (HUVECs; 0.01-10 nM): inhibited endothelial cell morphogenesis on Matrigel in a dose-dependent manner | WM cell proliferation in presence of endothelial cells (BCWM.1 cells [7]): reduced WM cell proliferation, despite the presence of endothelial cells | cyclin D1 and cyclin D2 (BCWM.1 cells [8]): down-regulation | cyclin kinase inhibitor proteins p27Kip1, p21Cip1 (BCWM.1 cells [8]): up-regulation | p-mTOR, p-p70S6K and p-4EBP1 (mTOR): inhibition | endothelial cell-dependent phosphorylation of 4EBP1 and 70SK in WM cells (BCWM.1 cells [9]): inhibited endothelial cell-dependent phosphorylation of 4EBP1 and 70SK | apoptosis (DNA fragmentation) [10]: induced apoptosis in a dose-dependent manner | cytotoxicity [11]: did not show cytotoxicity | miRNA155 level (miRNA-155): inhibited miRNA155 level in a dose-dependent manner | viability of BMSCs (BMSCs): not affected | cytotoxic effect [12]: significantly induced toxicity in all the 4 samples | cytotoxicity at doses used for migration (BCWM.1 cells [13]; 0.01-1 nM, 4 hours): did not induce cytotoxicity | cytotoxicity (BCWM.1 cells [13]; 0.01-40 nM, 48 hours): inducing cytotoxicity in a dose-dependent manner | phosphorylation of S6R and 4EBP1 in bone marrow biopsies ([14]; patients with partial response, pre- vs post-everolimus): inhibition of phosphorylation | modulation of p-S6R and p-4EBP1 in bone marrow biopsies ([14]; patients with stable disease): not observed | everolimus-dependent induction of toxicity after miRNA155 knock down (BCWM.1 and MWCL.1 cells [15]): partially inhibited by knocking down miRNA155 | minor response [16]: 28% | overall response rate [16]: 70% | partial response (PR) [16]: 42% | TNF-α-induced NF-κB recruitment to the nucleus, single agents (NF-κB p65): similarly inhibited | caspase-9, -3 and PARP cleavage (BCWM.1 and MWCL.1 cells [17]): induced caspase-9, -3 and PARP cleavage in a dose dependent manner

rituximab: the anti-CD20 antibody, rituximab
specific lysis (BCWM.1 cells [18]): 37.7%
